Reference: patent US20100125059A1, “1-BIARYLAZETIDINONE DERIVATIVE” (Teijin Pharma Limited, priority 2007, published 2010)
Read-outs that look alike come from different tables or passages of the source.

Tested on: hamsters fed a high cholesterol diet
Assay: Measurement of lipid lowering effect in hamsters fed a high cholesterol diet
Assay type: in vivo, Male Golden Syrian hamsters
Conditions: Mesocricetus auratus, po, 168 h, gavage once daily, 7 days
Experimental: Male Golden Syrian hamsters are divided into groups each consisting of 6 animals and fed a controlled high cholesterol diet (CE-2 containing 0.5% cholesterol; CLEA Japan, Inc.) for 28 days at most. From the start of feeding of the high cholesterol diet, the test compounds are administered by gavage once daily. For the administration, 0.2 mL of corn oil alone per 100 g (control group) or a solution (or suspension) of the test compound in corn oil at a dose of 0.01 to 10 mg/kg was given. At the same time, a group fed with a normal diet during the same study period is handled as a normal group. 4 hours after the last administration, whole blood is collected from the abdominal aorta under light anesthesia with ether and serum is separated from the blood. Further, livers are harvested, wet liver weights are measured, and part (about 0.5 g) of the harvested livers are extracted and weighed. 2-propanol in an amount 4 times the weight of the extracted livers are added, the resulted mixtures are homogenized, and the centrifuged supernatant are recovered and used as liver-derived samples.
Serum and liver TC concentrations are determined by an enzyme method using L-type Wako CHO•H (Wako Pure Chemical Industries Ltd.) or Cholestest CHO (Daiichi Pure Chemicals Co., Ltd.). Serum TG concentrations are determined by an enzyme method using L-type Wako TG•H (Wako Pure Chemical Industries Ltd.) or Autosera S TG-N (Daiichi Pure Chemicals Co., Ltd.) and a free glycerine elimination method. LDL-C concentrations are determined by a direct method using L-type Wako LDL-C•M (Wako Pure Chemical Industries Ltd.) or Cholestest LDL (Daiichi Pure Chemicals Co., Ltd.). Human serum was commonly used as a sample for the calibration curve for determinations of serum and liver TC concentrations, serum TG concentration, and serum LDL-C concentration. The effect of the test compound is shown by a suppression rate (%) of an increase in serum TC concentration due to feeding of the high cholesterol diet, a serum TG lowering rate (%), a suppression rate (%) of an increase in serum LDL-C concentration due to feeding of the high cholesterol diet, and a suppression rate (%) of an increase in liver TC concentration due to feeding of the high cholesterol diet calculated in accordance with the following equations.
In the Equation 2, A is the control group, B is the test compound group, and C is the normal group.
In the Equation 3, A is the control group, B is the test compound group, and C is the normal group.
In the Equation 4, A is the control group, B is the test compound group, and C is the normal group.
In the Equation 5, A is the control group, and B is the test compound group.
The following results were obtained from the study by this method on the effects of lowering serum TC, LDL-C, and TG, and liver TC in the hamsters fed with a high cholesterol diet which were given the test compounds for 7 days.
The compounds in which pyridyl of compound of example 51 and 55 was exchanged for phenyl, were used as comparative compound 1 and 2, respectively. In the same method as Example 112, the suppression rate (%) of an increase in serum TC concentration of comparative compound 1 and 2 were calculated.

[1] = read-out: serum LDL-C lowering effect (suppression rate of an increase in serum LDL-C concentration)
[2] = read-out: serum TC lowering effect (suppression rate of an increase in serum TC concentration)
[3] = read-out: serum TG lowering effect (serum TG lowering rate)
[4] = read-out: liver TC lowering effect (suppression rate of an increase in liver TC concentration)

Compound	inhibition in vivo at 0.1 mg/kg [1] [%]	inhibition in vivo at 0.1 mg/kg [2] [%]	inhibition in vivo at 0.1 mg/kg [3] [%]	further results
O=C1[C@H](SC[C@H](O)c2ccc(Cl)cc2O)[C@@H](c2ccc(O)cc2)N1c1ccc(-c2cccnc2)cc1 [Example 89, (3R,4R)-3-[(2R)-2-(4-chloro-2-hydroxyphenyl)-2-hydroxyethylthio]-4-(4-hydroxyphenyl)-1-[4-(pyridin-3-yl)phenyl]azetidin-2-one]	≥ 50	≥ 50	–	–
O=C1[C@H](SC[C@H](O)c2ccc(Cl)cc2)[C@@H](c2ccc(O)cc2O)N1c1ccc(-c2cncc(F)c2)cc1 [Example 72, (3R,4R)-3-[(2R)-2-(4-chlorophenyl)-2-hydroxyethylthio]-4-(2,4-dihydroxyphenyl)-1-[4-(5-fluoropyridin-3-yl)phenyl]azetidin-2-one]	≥ 50	≥ 50	–	–
COc1ccncc1-c1ccc(N2C(=O)[C@H](SC[C@H](O)c3ccc(F)cc3)[C@H]2c2ccc(O)cc2O)cc1 [Example 64, (3R,4R)-3-[(2R)-2-(4-fluorophenyl)-2-hydroxyethylthio]-4-(2,4-dihydroxyphenyl)-1-[4-(4-methoxypyridin-3-yl)phenyl]azetidin-2-one]	≥ 50	≥ 50	–	–
Cc1cncc(-c2ccc(N3C(=O)[C@H](SC[C@H](O)c4ccc(F)cc4)[C@H]3c3ccc(O)cc3)cc2)c1 [Example 68, (3R,4R)-3-[(2R)-2-(4-fluorophenyl)-2-hydroxyethylthio]-4-(4-hydroxyphenyl)-1-[4-(5-methylpyridin-3-yl)phenyl]azetidin-2-one]	≥ 50	–	–	inhibition in vivo at 0.01 mg/kg [2]: ≥ 30%
N#Cc1ccc(-c2ccc(N3C(=O)[C@H](SC[C@H](O)c4ccc(Cl)cc4)[C@H]3c3ccc(O)cc3)cc2)cn1 [Example 60, 5-(4-{(3R,4R)-3-[(2R)-2-(4-chlorophenyl)-2-hydroxyethylthio]-4-(4-hydroxyphenyl)-2-oxoazetidinyl}phenyl)pyridine-2-carbonitrile]	≥ 50	–	≥ 20	–
Cc1cncc(-c2ccc(N3C(=O)[C@H](SC[C@H](O)c4ccc(F)cc4)[C@H]3c3ccc(O)cc3O)cc2)c1 [Example 93, (3R,4R)-3-[(2R)-2-(4-fluorophenyl)-2-hydroxyethylthio]-4-(2,4-dihydroxyphenyl)-1-[4-(5-methylpyridin-3-yl)phenyl]azetidin-2-one]	–	–	≥ 20	inhibition in vivo at 0.01 mg/kg [1]: ≥ 30%; inhibition in vivo at 0.01 mg/kg [2]: ≥ 30%
N#Cc1cncc(-c2ccc(N3C(=O)[C@H](SC[C@H](O)c4ccc(Cl)cc4)[C@H]3c3ccc(O)cc3O)cc2)c1 [Example 65, 5-(4-{(3R,4R)-3-[(2R)-2-(4-chlorophenyl)-2-hydroxyethylthio]-4-(2,4-dihydroxyphenyl)-2-oxoazetidinyl}phenyl)pyridine-3-carbonitrile]	≥ 50	≥ 50	–	–
N#Cc1ncc(-c2ccc(N3C(=O)[C@H](SC[C@H](O)c4ccc(F)cc4)[C@H]3c3ccc(O)cc3)cc2)cn1 [Example 103, 5-(4-{(3R,4R)-3-[(2R)-2-(4-fluorophenyl)-2-hydroxyethylthio]-4-(4-hydroxyphenyl)-2-oxoazetidinyl}phenyl)pyrimidine-2-carbonitrile]	–	–	≥ 20	–
Cc1cc(O)ccc1[C@@H]1[C@@H](SC[C@H](O)c2ccc(F)cc2)C(=O)N1c1ccc(-c2cncc(C#N)c2)cc1 [Example 80, 5-(4-{(3R,4R)-3-[(2R)-2-(4-fluorophenyl)-2-hydroxyethylthio]-4-(4-hydroxy-2-methylphenyl)-2-oxoazetidinyl}phenyl)pyridine-3-carbonitrile]	≥ 50	≥ 50	–	–
CCNC(=O)c1cncc(-c2ccc(N3C(=O)[C@H](SC[C@H](O)c4ccc(F)cc4)[C@H]3c3ccc(O)cc3)cc2)c1 [Example 49, N-ethyl-5-(4-{(3R,4R)-3-[(2R)-2-(4-fluorophenyl)-2-hydroxyethylthio]-4-(4-hydroxyphenyl)-2-oxoazetidinyl}phenyl)pyridine-3-carboxamide]	≥ 50	≥ 50	≥ 20	–
O=C1[C@H](SC[C@H](O)c2ccc(Cl)cc2)[C@@H](c2ccc(O)cc2O)N1c1ccc(-c2cncc(Cl)c2)cc1 [Example 96, (3R,4R)-3-[(2R)-2-(4-chlorophenyl)-2-hydroxyethylthio]-4-(2,4-dihydroxyphenyl)-1-[4-(5-chloropyridin-3-yl)phenyl]azetidin-2-one]	–	–	–	inhibition in vivo at 0.01 mg/kg [4]: ≥ 30%
O=C1[C@H](SC[C@H](O)c2ccc3c(c2)OCO3)[C@@H](c2ccc(O)cc2)N1c1ccc(-c2cccnc2)cc1 [Example 33, (3R,4R)-3-[(2R)-2-(2H-benzo[3,4-d]1,3-dioxolen-5-yl)-2-hydroxyethylthio]-4-(4-hydroxyphenyl)-1-[4-(pyridin-3-yl)phenyl]azetidin-2-one]	≥ 50	≥ 50	–	–
COc1ccc([C@@H](O)CS[C@H]2C(=O)N(c3ccc(-c4cccnc4)cc3)[C@@H]2c2ccc(O)cc2)cc1 [Example 84, (3R,4R)-3-[(2R)-2-hydroxy-2-(4-methoxyphenyl)ethylthio]-4-(4-hydroxyphenyl)-1-[4-(pyridin-3-yl)phenyl]azetidin-2-one]	–	–	–	inhibition in vivo at 0.1 mg/kg [4]: ≥ 50%
O=C1[C@H](SC[C@H](O)c2ccc(F)cc2)[C@@H](c2ccc(O)cc2)N1c1ccc(-c2ccc(C(F)(F)F)cn2)cc1 [Example 3, (3R,4R)-3-[(2R)-2-(4-fluorophenyl)-2-hydroxyethylthio]-4-(4-hydroxyphenyl)-1-[4-(5-trifluoromethylpyridin-2-yl)phenyl]azetidin-2-one]	–	–	≥ 20	–
O=C1[C@H](SC[C@H](O)c2ccc(Cl)cc2)[C@@H](c2ccc(O)cc2O)N1c1ccc(-c2cccnc2)cc1 [Example 62, (3R,4R)-3-[(2R)-2-(4-chlorophenyl)-2-hydroxyethylthio]-4-(2,4-dihydroxyphenyl)-1-[4-(pyridin-3-yl)phenyl]azetidin-2-one]	≥ 50	≥ 50	–	–
Cc1ccc(-c2ccc(N3C(=O)[C@H](SC[C@H](O)c4ccc(F)cc4)[C@H]3c3ccc(O)cc3O)cc2)cn1 [Example 95, (3R,4R)-3-[(2R)-2-(4-fluorophenyl)-2-hydroxyethylthio]-4-(2,4-dihydroxyphenyl)-1-[4-(6-methylpyridin-3-yl)phenyl]azetidin-2-one]	–	–	–	inhibition in vivo at 0.01 mg/kg [1]: ≥ 30%; inhibition in vivo at 0.01 mg/kg [2]: ≥ 30%
O=C1[C@H](SC[C@H](O)c2ccc(Cl)cc2)[C@@H](c2ccc(O)cc2O)N1c1ccc(-c2cncc(C(F)(F)F)c2)cc1 [Example 75, (3R,4R)-3-[(2R)-2-(4-chlorophenyl)-2-hydroxyethylthio]-4-(2,4-dihydroxyphenyl)-1-[4-(5-trifluoromethylpyridin-3-yl)phenyl]azetidin-2-one]	–	–	≥ 20	inhibition in vivo at 0.01 mg/kg [4]: ≥ 30%; inhibition in vivo at 0.01 mg/kg [1]: ≥ 30%; inhibition in vivo at 0.1 mg/kg [4]: ≥ 50%
Cc1cncc(-c2ccc(N3C(=O)[C@H](SC[C@H](O)c4ccc(Cl)cc4)[C@H]3c3ccc(O)cc3O)cc2)c1 [Example 97, (3R,4R)-3-[(2R)-2-(4-chlorophenyl)-2-hydroxyethylthio]-4-(2,4-dihydroxyphenyl)-1-[4-(5-methylpyridin-3-yl)phenyl]azetidin-2-one]	≥ 50	≥ 50	–	–
